{
  "source": "paper PMC8522752",
  "about": "(Antimicrobial Agents and Chemotherapy, 2021)",
  "key": {"[1]": {"assay": "Cardiomyocyte assay (CellTiter Glo)", "assay_type": "cell-based", "details": "human iPS cardiomyocytes"}, "[2]": {"assay": "Plasma pharmacokinetics in CD-1 mice after oral AT-752", "details": "male, CD-1, mouse, in vivo, 420 mg/kg"}, "[3]": {"assay": "Plasma pharmacokinetics in cynomolgus monkeys after oral AT-752"}, "[4]": {"assay": "Plasma pharmacokinetics in Sprague Dawley rats after oral AT-752", "details": "male, Sprague Dawley, rat, in vivo, po, 300 mg/kg"}, "[5]": {"target": "DENV NS5 protein (serotype 2) (Dengue virus type 2, UniProt P14340)", "assay": "Nucleotide analogue incorporation / RNA elongation assay", "assay_type": "biochemical, dengue virus serotype 2", "details": "for effect on RNA synthesis after incorporation: P10/T20 primer-template, with or without GTP"}, "[6]": {"target": "human cellular DNA-dependent DNA polymerase α", "details": "read-out: estimated IC50; cited from earlier work"}, "[7]": {"target": "human cellular DNA-dependent DNA polymerase β", "details": "read-out: estimated IC50; cited from earlier work"}, "[8]": {"target": "human cellular DNA-dependent DNA polymerase γ", "details": "read-out: estimated IC50; cited from earlier work"}, "[9]": {"test_system": "human mitochondrial DNA-directed RNA polymerase (POLRMT)", "details": "cited from earlier work"}, "[10]": {"details": "rats, single oral dose AT-281 300 mg/kg, 24 h"}, "[11]": {"details": "mice, single oral dose AT-281 50 mg/kg, 12 h, pooled from 3 animals"}, "[12]": {"details": "monkeys, single oral dose of AT-752 equivalent to 55 mg/kg AT-281, 12 h"}, "DENV": {"test_system": "DENV", "design": "method as in PMID 22807519", "details": "cited from earlier work"}, "DENV2 D2Y98P": {"test_system": "DENV2 D2Y98P", "assay_type": "in vivo, AG129 mice"}, "[13]": {"details": "cynomolgus monkey plasma, 2 μM, 120 min, 37°C"}, "[14]": {"details": "human plasma, 2 μM, 120 min, 37°C"}, "[15]": {"details": "Sprague Dawley rat plasma, 10 min of incubation"}, "[16]": {"design": "dose or concentration left out as unconfirmed", "details": "rats, doses up to for 14 days; S. S. Good, unpublished data"}, "[17]": {"details": "monkeys, doses up to 1,000 mg/day for 14 days; S. S. Good, unpublished data"}, "in vitro": {"assay": "in vitro", "details": "Sprague Dawley, rat, plasma"}, "[18]": {"details": "male, cynomolgus, cynomolgus monkey, in vivo, po, 300 mg/kg"}},
  "note": "Where two headings read alike, the source gives them in different places.",
  "data": [
    {"smiles": "COc1cc2nc(N3CCN(C(=O)C4COc5ccccc5O4)CC3)nc(N)c2cc1OC", "note": "(stereo not drawn) [doxazosin, reference compound]", "values": [
      {"measurement": "CC50 at 3 days", "setting": "[1]", "value": 7, "unit": "µM"}
    ]},
    {"smiles": "CNc1nc(N)nc2c1ncn2[C@@H]1O[C@H](CO[P@](=O)(O)N[C@@H](C)C(=O)O)[C@@H](O)[C@@]1(C)F", "note": "[AT-551]", "values": [
      {"measurement": "AUC(0-t)", "setting": "[2]", "value": "58.7 ± 13.3", "unit": "µM·h"},
      {"measurement": "Cmax", "setting": "[2]", "value": "45100 ± 12000", "unit": "nM"},
      {"measurement": "Tmax", "setting": "[2]", "value": 0.5, "unit": "h"},
      {"measurement": "AUC(0-t)", "setting": "[3]; [18]", "value": "9.7 ± 2.2", "unit": "µM·h"},
      {"measurement": "Cmax", "setting": "[3]; [18]", "value": "2000 ± 800", "unit": "nM"},
      {"measurement": "Tmax", "setting": "[3]; [18]", "value": 2, "unit": "h"},
      {"measurement": "AUC(0-t)", "setting": "[4]", "value": 56.5, "unit": "µM·h"},
      {"measurement": "Cmax", "setting": "[4]", "value": "16500 ± 10800", "unit": "nM"}
    ]},
    {"smiles": "C[C@@]1(F)[C@H](O)[C@@H](COP(=O)(O)OP(=O)(O)OP(=O)(O)O)O[C@H]1n1cnc2c(=O)[nH]c(N)nc21", "note": "[AT-9010]", "values": [
      {"measurement": "effect on RNA synthesis after incorporation", "setting": "[5]", "value": "immediate chain termination of RNA synthesis"},
      {"measurement": "discrimination factor (preference for GTP > AT-9010)", "setting": "[5]; all four NTPs present, band product intensities at +5 and +7 positions", "value": "12.6 ± 4.3"},
      {"measurement": "AT-9010 concentration in PBMCs", "setting": "mice, 500 mg/kg AT-281 then 250 mg/kg 4 h later, 4 h after the second dose", "value": 0.297, "unit": "pmol/10^6 cells"},
      {"measurement": "IC50", "setting": "[6]", "value": "> 100", "unit": "µM"},
      {"measurement": "IC50", "setting": "[7]", "value": "> 100", "unit": "µM"},
      {"measurement": "IC50", "setting": "[8]", "value": "> 100", "unit": "µM"},
      {"measurement": "effect on mitochondrial integrity / inhibition of POLRMT", "setting": "[9]", "value": "not likely to affect mitochondrial integrity or inhibit human mitochondrial DNA-directed RNA polymerase"},
      {"measurement": "AT-9010 concentration in PBMCs", "setting": "[10]", "value": "0.439 ± 0.218", "unit": "pmol/10^6 cells"},
      {"measurement": "AT-9010 concentration in PBMCs", "setting": "[11]", "value": 0.092, "unit": "pmol/10^6 cells"},
      {"measurement": "AT-9010 concentration in PBMCs", "setting": "[12]", "value": "0.070 ± 0.046", "unit": "pmol/10^6 cells"}
    ]},
    {"smiles": "C[C@@]1(F)[C@H](O)[C@@H](CO)O[C@H]1n1cnc2c(=O)[nH]c(N)nc21", "note": "[AT-273, 2′-fluoro-2′-C-methyl guanosine]", "values": [
      {"measurement": "plasma AT-273 concentration", "setting": "CD-1, mouse, in vivo", "value": "1.35 ± 0.86", "unit": "nmol/mL"},
      {"measurement": "plasma AT-273 concentration", "setting": "mice, AT-281 1,000 mg/kg loading then 500 mg/kg BID 3 days, 12 h after the first 500-mg/kg dose", "value": "0.67 ± 0.12", "unit": "nmol/mL"},
      {"measurement": "AUC(0-t)", "setting": "[2]", "value": "18.8 ± 6", "unit": "µM·h"},
      {"measurement": "Cmax", "setting": "[2]", "value": "2300 ± 700", "unit": "nM"},
      {"measurement": "AUC(0-t)", "setting": "[3]; [18]", "value": "7.8 ± 2.4", "unit": "µM·h"},
      {"measurement": "Cmax", "setting": "[3]; [18]", "value": "800 ± 200", "unit": "nM"},
      {"measurement": "AUC(0-t)", "setting": "[4]", "value": 22.9, "unit": "µM·h"},
      {"measurement": "Cmax", "setting": "[4]", "value": "1300 ± 300", "unit": "nM"},
      {"measurement": "Tmax", "setting": "[4]", "value": 8, "unit": "h"}
    ]},
    {"smiles": "CC(C)C(=O)OC[C@@]1(N=[N+]=[N-])O[C@@H](n2ccc(N)nc2=O)[C@H](OC(=O)C(C)C)[C@@H]1OC(=O)C(C)C", "note": "[balapiravir]", "values": [
      {"measurement": "viremia in patients infected with DENV", "setting": "DENV", "value": "failed to reduce viremia"},
      {"measurement": "antiviral response, cytokine profile and time to fever clearance vs placebo", "setting": "DENV; tested clinically", "value": "no differences between compound and placebo treatment were observed"}
    ]},
    {"smiles": "Nc1nc2c(ncn2[C@@H]2O[C@H](COP(=O)(O)OP(=O)(O)OP(=O)(O)O)C[C@H]2O)c(=O)[nH]1", "note": "[3′-dGTP, reference compound]", "values": [
      {"measurement": "effect on RNA synthesis after incorporation", "setting": "[5]", "value": "equivalent profile"}
    ]},
    {"smiles": "CNc1nc(N)nc2c1ncn2[C@@H]1O[C@H](CO[P@](=O)(N[C@@H](C)C(=O)OC(C)C)Oc2ccccc2)[C@@H](O)[C@@]1(C)F", "note": "[AT-752]", "values": [
      {"measurement": "viremia vs vehicle, day 6 pi", "setting": "DENV2 D2Y98P; AG129 mice, oral 1,000 mg/kg loading 4 h before challenge then 500 mg/kg BID 7 days, P = 0.000014", "value": "significantly lower"},
      {"measurement": "viremia vs control, day 4 pi", "setting": "DENV2 D2Y98P; same regimen", "value": "did not demonstrate a difference in viremia"},
      {"measurement": "survival vs vehicle (Kaplan-Meier)", "setting": "DENV2 D2Y98P; same regimen, P = 0.0004, Mantel-Cox log rank test", "value": "significantly improved the survival"},
      {"measurement": "health scores vs vehicle", "setting": "DENV2 D2Y98P; same regimen, day 4 to day 9 pi, P < 0.001", "value": "significantly better health scores"},
      {"measurement": "weight loss vs vehicle", "setting": "DENV2 D2Y98P; same regimen, days 5, 7 and 8 pi, P < 0.001", "value": "significantly reduced weight loss"},
      {"measurement": "spleen viral load vs control by day 7 pi", "setting": "DENV2 D2Y98P; same regimen, reduced compared to control", "value": "not statistically different"},
      {"measurement": "viremia by day 8 pi", "setting": "DENV2 D2Y98P; same regimen, virus still measurable in all surviving controls, P = 0.0045", "value": "cleared in all treated animals"},
      {"measurement": "% of starting concentration remaining", "setting": "[13]", "value": 98.2, "unit": "%"},
      {"measurement": "% of starting concentration remaining", "setting": "[14]", "value": 93.5, "unit": "%"},
      {"measurement": "drug remaining at first time point", "setting": "[15]", "value": "no drug remaining"},
      {"measurement": "safety findings", "setting": "[16]", "value": "no safety concerns"},
      {"measurement": "safety findings", "setting": "[17]", "value": "no safety concerns"},
      {"measurement": "half-life", "setting": "in vitro", "value": "< 3", "unit": "min"},
      {"measurement": "unusual or adverse clinical signs after dosing", "setting": "[3]; monkeys, oral AT-752 300 mg/kg or 60 mg/kg, observed before and after dosing and at blood collections", "value": "no such signs noted"}
    ]}
  ]
}
